The text below walks through data of patent EP4501917A1, “3,4-DIHYDROQUINOXALINE-2-CARBOXIMIDE DERIVATIVE COMPOUND AND PHARMACEUTICAL COMPOSITION COMPRISING SAME FOR PREVENTING OR TREATING CANCER DISEASE” (Daegu-Gyeongbuk Medical Innovation Foundation, priority 2022, dated 2023).

One data set addresses T1, HDAC8 (Homo sapiens, UniProt Q9BY41).
T1 construct: purchased BPS bioscience
T1 sequence (Q9BY41 1-377): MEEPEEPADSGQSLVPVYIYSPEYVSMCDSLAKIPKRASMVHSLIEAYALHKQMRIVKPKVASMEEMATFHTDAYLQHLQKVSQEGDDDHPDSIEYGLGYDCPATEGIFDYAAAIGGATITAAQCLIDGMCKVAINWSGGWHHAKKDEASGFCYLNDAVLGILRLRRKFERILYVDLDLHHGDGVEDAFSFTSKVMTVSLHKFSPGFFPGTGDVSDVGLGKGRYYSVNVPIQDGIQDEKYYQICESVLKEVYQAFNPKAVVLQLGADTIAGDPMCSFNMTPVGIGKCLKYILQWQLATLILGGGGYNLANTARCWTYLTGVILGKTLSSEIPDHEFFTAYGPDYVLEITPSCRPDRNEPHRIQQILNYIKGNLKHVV
As to the kind of experiment: HDAC8 inhibitory activity analysis (in vitro), RFU analysis, HDAC Fluorogenic assay kit. In kind it is biochemical.

The next data set concerns the target T2, HDAC7 (Homo sapiens, UniProt Q8WUI4).
T2 construct: purchased BPS bioscience
T2 sequence (Q8WUI4 1-952): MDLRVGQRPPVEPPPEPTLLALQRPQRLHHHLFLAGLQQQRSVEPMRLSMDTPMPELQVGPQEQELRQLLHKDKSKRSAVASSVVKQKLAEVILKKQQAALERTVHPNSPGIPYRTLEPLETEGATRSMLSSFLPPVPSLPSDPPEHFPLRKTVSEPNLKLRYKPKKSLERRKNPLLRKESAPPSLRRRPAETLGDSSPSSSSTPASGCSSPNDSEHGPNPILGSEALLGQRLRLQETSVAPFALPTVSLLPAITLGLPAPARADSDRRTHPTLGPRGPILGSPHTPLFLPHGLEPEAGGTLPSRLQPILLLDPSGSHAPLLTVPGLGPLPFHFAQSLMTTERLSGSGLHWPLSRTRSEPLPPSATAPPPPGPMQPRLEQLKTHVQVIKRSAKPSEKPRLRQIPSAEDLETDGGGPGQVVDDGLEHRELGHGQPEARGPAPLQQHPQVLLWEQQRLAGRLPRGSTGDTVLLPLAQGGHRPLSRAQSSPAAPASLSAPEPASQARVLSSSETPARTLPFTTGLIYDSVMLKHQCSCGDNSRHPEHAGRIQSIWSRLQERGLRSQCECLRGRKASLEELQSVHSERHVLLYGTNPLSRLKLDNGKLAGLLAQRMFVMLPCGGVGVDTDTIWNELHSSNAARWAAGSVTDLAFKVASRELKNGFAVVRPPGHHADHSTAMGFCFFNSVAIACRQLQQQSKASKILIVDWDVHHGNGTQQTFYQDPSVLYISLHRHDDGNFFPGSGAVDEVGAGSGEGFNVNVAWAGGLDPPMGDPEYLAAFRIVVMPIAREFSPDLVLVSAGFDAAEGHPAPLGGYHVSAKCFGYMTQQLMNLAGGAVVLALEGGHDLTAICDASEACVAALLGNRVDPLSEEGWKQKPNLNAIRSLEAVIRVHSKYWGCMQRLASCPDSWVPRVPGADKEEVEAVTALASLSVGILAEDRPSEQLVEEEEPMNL
As to the kind of experiment: Selective HDAC inhibition, HDAC Fluorogenic assay kit. In kind it is biochemical. The conditions noted are these: final concentration 10 µM; HDAC substrate 2A 200 µM; positive control (1% DMSO) set to 100; read-out: HDAC7 enzyme activity (%).

Data set [1] concerns PC-3 prostate cancer cells. The data set can be described thus: Prostate cancer cell growth inhibition, CCK-8 assay. In kind it is cell-based, human. The conditions noted are these: PC-3 cells, result in words. The protocol: PC-3, a human-derived prostate cancer cell line, was cultured with RPMI1640 (10% fetal bovine serum, 1% Penicillin Streptomycin) culture medium at 37°C, 5% CO2 condition. All cells in the experiment were subcultured when they reached a confluency of approximately 80% to 90%, and only cells that had not passed 20 passages were used.
After culturing, 10 µL CCK-8 reagent was added and the absorbance was measured after 1 hour. The absorbance was measured at 450 nm using a microplate reader [BMG Labtech (Offenburg, Germany)].
(Formazan colour is commonly taken as a measure of viable cells.)

A further data set deals with Liver cancer cells Huh-7. The data set can be described thus: Liver cancer cell growth inhibition, CellTiter-Glo Luminescent Cell Viability Assay. The data set is classed as cell-based. As to conditions: Huh-7 cells, various concentrations, day 1, FIG. 6; result in words. The protocol:
In addition, an analysis of liver cancer growth inhibitory activity was performed. Liver cancer cells Huh-7 cells were dispensed in a 96-well plate at 1 × 10^4 cells/ml, and after 20 hours, PCI34051, Example 27, and Example 35 were added at various concentrations, and cultured for 24 and 48 hours at 37°C in a 5% CO2 atmosphere. After culturing, 100 µl CellTiter-Glo Luminescent Cell Viability Assay reagent was added and the luminescence signal was measured after 0.5-1 hour. The luminescence signal was measured using IVIS [PerkinElmer, (Waltham, USA)].
(Cellular ATP, detected with luciferase, serves as a proxy for viable cell number.)

The next data set concerns PC-3 cell lines. The data set can be described thus: Prostate cancer model, PC-3 cell lines subcutaneously transplanted, tumor volume and weight. The data set is classed as in vivo, nude mice. As to conditions: result in words. The protocol:
A prostate cancer model was established by subcutaneously transplanting PC-3 cell lines into nude mice, and the mice were divided into two groups (group 1: vehicle administration group (10% DSMO, 30% PEG400, 60% DW), group 2: 50 mg/kg Example 27 compound administration group). The drug was administered orally once a day for 12 times. To evaluate the therapeutic efficacy, tumors were […] before drug administration and on days 3, 6, 8, 10, 12, and 14 after drug administration, and tumor volumes were measured. Tumor volume (mm^3) was calculated as follows (tumor volume (mm^3) = (A X B^2)/2, where A = tumor long axis, B = tumor short axis), and the results are shown in FIG. 2.
Meanwhile, on day 12 of drug administration, the tumor was removed and its weight was measured, the results are shown in FIG. 3, and a photograph of the removed tumor was taken and shown in FIG. 4.

Data set [2] can be described thus: Body weight during drug administration, liver cancer model. The data set is classed as in vivo, nude mice. The conditions noted are these: 50 mg/kg, during the drug administration period, Huh-7 model, FIG. 7D; result in words. As for the experimental part:
In addition, a liver cancer model was established by subcutaneously transplanting Huh-7 cell lines into nude mice. After establishing the liver cancer model, the mice were divided into two groups (group 1: vehicle administration group, group 2: 50 mg/kg Example 27 compound administration group). The drug was administered once a day for 12 times. To evaluate therapeutic efficacy, tumor volume was measured before drug administration and on days 4, 7, 10, 13, and 15 after drug administration. Tumor volume (mm^3) was calculated as follows (tumor volume (mm^3) = (A X B^2)/2, where A = tumor long axis, B = tumor short axis). Body weight was measured before administration and on days 4, 7, 10, 13, and 15 after drug administration during the drug administration period. Tumor was excised on day 15 after drug treatment and body weight was measured.

The next data set concerns the target HDAC4 (Homo sapiens, UniProt P56524). The data set can be described thus: Selective HDAC inhibition, HDAC Fluorogenic assay kit. As to conditions: read-out: HDAC4 enzyme activity (%).

HDAC4, sequence (P56524 whole entry): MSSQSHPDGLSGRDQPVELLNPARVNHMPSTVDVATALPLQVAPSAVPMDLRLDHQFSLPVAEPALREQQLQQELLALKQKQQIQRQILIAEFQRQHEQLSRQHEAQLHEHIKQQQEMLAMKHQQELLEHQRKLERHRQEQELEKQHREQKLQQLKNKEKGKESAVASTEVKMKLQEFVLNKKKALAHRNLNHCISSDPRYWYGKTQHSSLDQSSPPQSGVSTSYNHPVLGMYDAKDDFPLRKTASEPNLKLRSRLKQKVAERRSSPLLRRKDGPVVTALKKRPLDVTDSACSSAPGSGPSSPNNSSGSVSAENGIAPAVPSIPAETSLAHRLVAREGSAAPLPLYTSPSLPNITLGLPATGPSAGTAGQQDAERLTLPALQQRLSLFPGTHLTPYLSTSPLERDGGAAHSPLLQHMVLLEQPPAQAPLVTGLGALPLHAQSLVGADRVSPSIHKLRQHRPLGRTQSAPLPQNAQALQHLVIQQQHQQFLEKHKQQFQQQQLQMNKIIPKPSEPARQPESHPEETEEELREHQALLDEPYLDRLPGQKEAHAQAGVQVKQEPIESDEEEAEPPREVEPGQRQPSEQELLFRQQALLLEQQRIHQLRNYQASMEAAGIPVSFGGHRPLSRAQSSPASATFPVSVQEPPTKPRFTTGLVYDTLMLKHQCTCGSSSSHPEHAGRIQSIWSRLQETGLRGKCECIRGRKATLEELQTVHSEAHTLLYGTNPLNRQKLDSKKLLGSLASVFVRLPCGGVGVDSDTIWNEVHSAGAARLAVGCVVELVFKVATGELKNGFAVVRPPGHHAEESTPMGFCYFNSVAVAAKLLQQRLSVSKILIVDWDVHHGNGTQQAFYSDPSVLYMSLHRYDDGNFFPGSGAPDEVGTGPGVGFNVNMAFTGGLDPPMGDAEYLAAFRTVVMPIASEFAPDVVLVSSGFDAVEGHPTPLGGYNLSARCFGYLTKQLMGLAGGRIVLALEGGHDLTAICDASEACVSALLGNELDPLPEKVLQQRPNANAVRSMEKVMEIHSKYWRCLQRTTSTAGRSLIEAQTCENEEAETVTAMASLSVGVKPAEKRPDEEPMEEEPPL
Description for HDAC4: (§1) For analysis, HDAC substrate 3 was diluted in buffer to a concentration of 200 µM and used in HDAC 1, 2, 3, 6, and 10 assays, HDAC substrate 2A was diluted in buffer to a concentration of 200 µM and used in HDAC 4, 7, 9, and 11 assays, HDAC substrate 2A was diluted in buffer to a concentration of 20 µM and used in HDAC 8 assays. For the HDAC 11 assay, a dedicated buffer included in the kit was used separately, and the same buffer was used for the remaining assays. The compound of the Example was diluted to 1 mM (1% DMSO concentration) using DMSO to obtain a final concentration of 10 µM, and prepared by diluting 1/10 with assay buffer. In a 96-well black round-bottom plate, 5 µL of the diluted compound of the Example, 5 µL of the diluted HDAC substrate, 5 µL of BSA (1 mg/ml), 5 µL of the HDAC enzyme diluted to the appropriate concentration, and 30 µL of assay buffer were added, and the enzyme reaction was performed at 37°C for 30 minutes. […] Afterwards, 50 µL of 2X HDAC developer was added to each well. After reacting for 15 minutes at room temperature, the fluorescence values at excitation wavelengths of 350-380 nm and emission wavelengths of 440-460 nm were measured using a microplate reader (Synergy Neo).
Description for HDAC7: as §1
Description for HDAC8: The compound of the Example was diluted to 1 mM (1% DMSO concentration) using DMSO to obtain a final concentration of 10 µM, and prepared by diluting 1/10 with assay buffer. In a 96-well black round-bottom plate, 5 µL of the diluted compound of the Example, 5 µL of the diluted HDAC substrate 2A, 5 µL of BSA (1 mg/mL), 5 µL of the HDAC8 enzyme diluted to an appropriate concentration, and 30 µL of assay buffer were added, and the enzyme reaction was performed at 37°C for 30 minutes. […] Afterwards, 50 µL of 2X HDAC developer was added to each well. After reacting for 15 minutes at room temperature, the fluorescence values at excitation wavelengths of 350-380 nm and emission wavelengths of 440-460 nm were measured using a microplate reader (Synergy Neo).

`Cc1cc2nc(C(=O)NCCc3c[nH]c4ccc(O)cc34)c(=O)n(C[C@H](O)[C@H](O)[C@H](O)CO)c2cc1C` [Example 27, N-(2-(5-hydroxy-1H-indol-3-yl)ethyl)-6,7-dimethyl-3-oxo-4-((2S,3S,4R)-2,3,4,5-tetrahydroxypentyl)-3,4-dihydroquinoxaline-2-carboxamide]: the “RFU (%)” value at HDAC8 (compound final concentration 10 µM, HDAC substrate 2A 20 µM, positive control (1% DMSO) set to 100, lower = more inhibition) is 7.62%. At HDAC8 (result in words, summary of Table 2, 10 µM), the “inhibitory activity against HDAC8” value is “inhibitory activity similar to TSA or SAHA”. The remaining activity at 10 µM at HDAC7 was 91.2%; on HDAC4 it was 98.2%. Also, the “cancer cell viability inhibition rate” value in data set [1] (compared with PCI-34051, FIG. 1) was “superior to that of PCI-34051”. The cell viability entry is “effectively reduced the viability of prostate cancer cells in a concentration- and time-dependent manner” in data set [1] (various concentrations, 24 hours and 48 hours, FIG. 1); “concentration-dependent inhibition of cancer cell viability” in the data set with Liver cancer cells Huh-7. The tumor volume result in the data set on PC-3 cell lines (50 mg/kg orally once a day for 12 times, up to day 14, *p<0.05 compared with vehicle, FIG. 2) is “significantly reduced tumor volume growth rate compared to group 1”. Also, the tumor weight entry in the data set on PC-3 cell lines (50 mg/kg orally once a day, tumor removed on day 12, ***p<0.0005 compared with vehicle, FIG. 3) is recorded as “vehicle administration group (group 1) had a significantly higher tumor weight”. For the same molecule, the body weight result in data set [2] is given as “No rapid weight loss was observed”.
